Results published in ChEMBL document CHEMBL1138013, “Parallel methods for the preparation and SAR exploration of N-ethyl-4-[(8-alkyl-8-aza-bicyclo[3.2.1]oct-3-ylidene)-aryl-methyl]-benzamides, powerful mu and delta opioid agonists” (Bioorg Med Chem Lett, 2004).

How the values were obtained:
[1] = Binding affinity against delta opioid receptor […]; design: species or system Mus musculus
[2] = biological target: Mu-type opioid receptor (Mus musculus) (UniProt P42866); experiment: Ratio of binding affinity against mu to that of delta opioid receptor
Mu-type opioid receptor = Mu-type opioid receptor (Mus musculus, UniProt P42866); experiment: Binding affinity against mu opioid receptor […]
Mu-type opioid receptor, sequence (P42866 whole entry): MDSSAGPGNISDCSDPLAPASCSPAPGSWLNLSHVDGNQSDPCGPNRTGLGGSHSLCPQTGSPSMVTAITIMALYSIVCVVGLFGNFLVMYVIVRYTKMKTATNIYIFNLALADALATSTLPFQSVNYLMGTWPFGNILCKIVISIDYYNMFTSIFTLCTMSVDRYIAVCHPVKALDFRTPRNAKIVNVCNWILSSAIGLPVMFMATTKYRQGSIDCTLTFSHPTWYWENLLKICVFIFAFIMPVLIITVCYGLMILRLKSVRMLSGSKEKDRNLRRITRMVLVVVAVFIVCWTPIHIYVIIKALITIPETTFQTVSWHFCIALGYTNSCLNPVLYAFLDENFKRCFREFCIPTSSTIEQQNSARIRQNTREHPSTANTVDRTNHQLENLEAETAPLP

Mu-type opioid receptor (Mus musculus), sequence (P42866 whole entry): as above

Row | SMILES | Ki [1] | Ratio [2] | Ki (Mu-type opioid receptor)
1 | CCNC(=O)c1ccc(C(=C2CC3CCC(C2)N3Cc2ccoc2)c2cccnc2)cc1 | 0.4 nM | 3 | 1.2 nM
2 | CCNC(=O)c1ccc(C(=C2CC3CCC(C2)N3Cc2ccoc2)c2cccc(N)c2)cc1 | 2 nM | 1.3 | 2.6 nM
3 | CCNC(=O)c1ccc(C(=C2CC3CCC(C2)N3Cc2ccoc2)c2ccc3c(c2)OCO3)cc1 |  | 1 | 1.1 nM
4 | CCNC(=O)c1ccc(C(=C2CC3CCC(C2)N3Cc2ccoc2)c2c(C)noc2C)cc1 | 1.2 nM | 1.5 | 1.8 nM
5 | CCNC(=O)c1ccc(C(=C2CC3CCC(C2)N3Cc2ccoc2)c2cccc(CO)c2)cc1 | 0.15 nM | 5.4 | 0.81 nM
6 | CCNC(=O)c1ccc(C(=C2CC3CCC(C2)N3Cc2cccc(C(=O)O)c2)c2ccccc2)cc1 | 280 nM | 1.7 | 480 nM
7 | CCNC(=O)c1ccc(C(=C2CC3CCC(C2)N3CCc2ccccc2)c2ccccc2)cc1 | 0.24 nM | 300 | 72 nM
8 | CCNC(=O)c1ccc(C(=C2CC3CCC(C2)N3Cc2ccoc2)c2cccc(CN)c2)cc1 | 20 nM | 3.6 | 71 nM
9 | CCNC(=O)c1ccc(C(=C2CC3CCC(C2)N3Cc2ccoc2)c2ccc(C(N)=O)cc2)cc1 | 3.9 nM | 0.33 | 1.3 nM
10 | CCNC(=O)c1ccc(/C(=C2\C[C@H]3CC[C@@H](C2)N3Cc2ccsc2)c2ccc(CO)cc2)cc1 | 2 nM |  | 17 nM
11 | C=C(C)CCN1[C@@H]2CC[C@H]1C/C(=C(\c1ccc(C(=O)NCC)cc1)c1cccc(C(C)=O)c1)C2 | 28 nM |  | 680 nM
12 | CCNC(=O)c1ccc(C(=C2CC3CCC(C2)N3Cc2ccoc2)c2ccc(CO)cc2)cc1 | 2.7 nM | 7 | 19 nM
13 | CCNC(=O)c1ccc(C(=C2CC3CCC(C2)N3Cc2ccoc2)c2cccc(CCC(=O)O)c2)cc1 | 0.78 nM | 3.9 | 3 nM
14 | CCNC(=O)c1ccc(C(=C2CC3CCC(C2)N3Cc2ccoc2)c2ccc(NC(C)=O)cc2)cc1 | 0.34 nM | 2.4 | 0.8 nM
15 | CCNC(=O)c1ccc(/C(Br)=C2\C[C@H]3CC[C@@H](C2)N3Cc2ccoc2)cc1 | 0.3 nM |  | 0.2 nM
16 | CCNC(=O)c1ccc(C(=C2CC3CCC(C2)N3Cc2ccoc2)c2ccc(S(C)(=O)=O)cc2)cc1 | 2 nM | 1.6 | 3.1 nM
17 | CCNC(=O)c1ccc(C(=C2CC3CCC(C2)N3Cc2ccoc2)c2cccc(C#N)c2)cc1 | 0.6 nM | 5.5 | 3.3 nM
18 | CCNC(=O)c1ccc(C(=C2CC3CCC(C2)N3Cc2ccoc2)c2ccc([N+](=O)[O-])cc2)cc1 | 0.23 nM | 6.5 | 1.5 nM
19 | CCNC(=O)c1ccc(C(=C2CC3CCC(C2)N3Cc2ccoc2)c2ccc(S(N)(=O)=O)cc2)cc1 | 16 nM | 3.1 | 50 nM
20 | CCNC(=O)c1ccc(C(=C2CC3CCC(C2)N3Cc2ccoc2)c2ccc(C(=O)N(C)C)cc2)cc1 | 4.6 nM | 1.5 | 6.7 nM
21 | CCNC(=O)c1ccc(C(=C2CC3CCC(C2)N3Cc2ccoc2)c2ccncc2)cc1 | 6 nM | 0.37 | 2.2 nM

Row | SMILES | Ki [1] | Ratio [2] | Ki (Mu-type opioid receptor)
22 | CCNC(=O)c1ccc(C(=C2CC3CCC(C2)N3Cc2ccoc2)c2cccc(C(C)=O)c2)cc1 | 0.4 nM | 3.3 | 1.3 nM
23 | CCNC(=O)c1ccc(C=C2CC3CCC(C2)N3Cc2ccoc2)cc1 | 93 nM | 1.2 | 110 nM
24 | CCNC(=O)c1ccc(C(=C2CC3CCC(C2)N3Cc2ccsc2)c2ccc3c(c2)OCO3)cc1 | 3.1 nM | 0.42 | 1.3 nM
25 | CCNC(=O)c1ccc(C(=C2CC3CCC(C2)N3Cc2cccnc2)c2ccccc2)cc1 | 71 nM | 0.87 | 
26 | CCNC(=O)c1ccc(C(Br)=C2CC3CCC(C2)N3Cc2ccoc2)cc1 | 0.8 nM | 2.4 | 1.9 nM
27 | C=C(C)CCN1C2CCC1CC(=C(c1ccc(C(=O)NCC)cc1)c1ccco1)C2 | 5.6 nM | 1.1 | 6.3 nM
28 | CCNC(=O)c1ccc(C(=C2CC3CCC(C2)N3Cc2ccoc2)c2cc(C(=O)O)cc([N+](=O)[O-])c2)cc1 | 0.94 nM | 13 | 12 nM
29 | CCNC(=O)c1ccc(C(=C2CC3CCC(C2)N3Cc2ccoc2)c2cc(N)cc(C(=O)O)c2)cc1 | 56 nM | 160 | 9100 nM
30 | CCNC(=O)c1ccc(/C(=C2\C[C@H]3CC[C@@H](C2)N3Cc2ccsc2)c2cccc(-c3nn[nH]n3)c2)cc1 | 0.7 nM |  | 12 nM
31 | CCNC(=O)c1ccc(/C(=C2/C[C@H]3CC[C@@H](C2)N3Cc2ccsc2)c2ccc(CO)cc2)cc1 | 17 nM |  | 80 nM
32 | C=C(C)CCN1[C@@H]2CC[C@H]1C/C(=C(/c1ccc(C(=O)NCC)cc1)c1cccc(C(=O)O)c1)C2 | 2.2 nM |  | 58 nM
33 | CCNC(=O)c1ccc(C(=C2CC3CCC(C2)N3Cc2ccoc2)c2cccc(C(=O)O)c2)cc1 | 3.5 nM | 8 | 
34 | CCNC(=O)c1ccc(C(=C2CC3CCC(C2)N3Cc2cccs2)c2ccccn2)cc1 | 3.8 nM | 1.6 | 6 nM
35 | CCNC(=O)c1ccc(C(=C2CC3CCC(C2)N3Cc2ccoc2)c2cccc(-c3nn[nH]n3)c2)cc1 | 0.73 nM | 2100 | 
36 | C=C(C)CCN1C2CCC1CC(=C(c1ccc(C(=O)NCC)cc1)c1cccc(C(C)=O)c1)C2 | 1.8 nM | 1.1 | 1.9 nM
37 | CCNC(=O)c1ccc(/C(C#N)=C2\C[C@H]3CC[C@@H](C2)N3Cc2ccoc2)cc1 | 0.9 nM |  | 2.6 nM
38 | CCNC(=O)c1ccc(C(=C2CC3CCC(C2)N3Cc2ccoc2)c2ccc(O)c(OC)c2)cc1 | 0.3 nM | 2 | 0.59 nM
39 | CCNC(=O)c1ccc(C(=C2CC3CCC(C2)N3Cc2ccoc2)c2ccccn2)cc1 | 10 nM | 4.5 | 45 nM
40 | CCNC(=O)c1ccc(C(=C2CC3CCC(C2)N3Cc2ccoc2)c2ccc(C(=O)O)cc2)cc1 | 5.3 nM | 2.3 | 12 nM
41 | CCNC(=O)c1ccc(C(=C2CC3CCC(C2)N3Cc2ccoc2)c2cnc3ccccc3c2)cc1 | 20 nM | 0.2 | 4 nM
42 | CCNC(=O)c1ccc(C(=C2CC3CCC(C2)N3Cc2ccccn2)c2cccc(NC(C)=O)c2)cc1 | 28 nM | 0.13 | 3.6 nM

Row | SMILES | Ki [1] | Ratio [2] | Ki (Mu-type opioid receptor)
43 | CCNC(=O)c1ccc(/C(=C2/C[C@H]3CC[C@@H](C2)N3Cc2ccccn2)c2ccc(C(=O)N(C)C)cc2)cc1 | 0.5 nM |  | 100 nM
44 | CCNC(=O)c1ccc(C(=C2CC3CCC(C2)N3Cc2c[nH]cn2)c2cccc(NC(C)=O)c2)cc1 | 19 nM | 0.5 | 
45 | CCNC(=O)c1ccc(C(=C2CC3CCC(C2)N3Cc2ccoc2)c2cccc(F)c2)cc1 | 0.4 nM | 9.3 | 3.7 nM
46 | CCNC(=O)c1ccc(C(=C2CC3CCC(C2)N3Cc2cnc[nH]2)c2cccc(NC(C)=O)c2)cc1 |  |  | 9.4 nM
47 | CCNC(=O)c1ccc(/C(=C2\C[C@H]3CC[C@@H](C2)N3Cc2ccccn2)c2ccc(C(=O)N(C)C)cc2)cc1 | 0.2 nM |  | 14 nM
48 | CCNC(=O)c1ccc(C(=C2CC3CCC(C2)N3Cc2ccoc2)c2ccc(C(C)=O)cc2)cc1 | 0.33 nM | 5.2 | 1.7 nM
49 | CCNC(=O)c1ccc(C(C#N)=C2CC3CCC(C2)N3Cc2ccoc2)cc1 | 0.3 nM | 3.3 | 1 nM
50 | CCNC(=O)c1ccc(C(=C2CC3CCC(C2)N3Cc2ccoc2)c2cncnc2)cc1 | 2.3 nM | 3 | 6.9 nM
51 | C=C(C)CCN1[C@@H]2CC[C@H]1C/C(=C(/c1ccc(C(=O)NCC)cc1)c1cccc(C(C)=O)c1)C2 | 1.5 nM |  | 2.8 nM
52 | CCN(CC)C(=O)c1ccc(C(=C2CC3CCC(C2)N3CCc2ccccc2)c2ccccc2)cc1 | 47 nM | 0.0055 | 0.26 nM
53 | CCNC(=O)c1ccc(C(=C2CC3CCC(C2)N3Cc2ccoc2)c2nnn[nH]2)cc1 | 210 nM | 0.4 | 83 nM
54 | CCNC(=O)c1ccc(C(=C2CC3CCC(C2)N3Cc2ccoc2)c2ccc(F)cc2)cc1 | 1.4 nM | 1.2 | 1.7 nM
55 | CCNC(=O)c1ccc(/C(Br)=C2/C[C@H]3CC[C@@H](C2)N3Cc2ccoc2)cc1 | 29 nM |  | 39 nM
56 | CCNC(=O)c1ccc(C(=C2CC3CCC(C2)N3Cc2ccoc2)c2c(C)cccc2C)cc1 | 1.3 nM | 1.1 | 1.4 nM
57 | CCNC(=O)c1ccc(C(=C2CC3CCC(C2)N3Cc2ccoc2)c2cccc(NC(C)=O)c2)cc1 | 0.5 nM | 2.4 | 1.2 nM
58 | CCNC(=O)c1ccc(C(=C2CC3CCC(C2)N3Cc2ccsc2)c2cnccn2)cc1 | 17 nM | 0.15 | 2.5 nM
59 | CCNC(=O)c1ccc(/C(C#N)=C2/C[C@H]3CC[C@@H](C2)N3Cc2ccoc2)cc1 | 1.1 nM |  | 2.3 nM
60 | C=C(C)CCN1[C@@H]2CC[C@H]1C/C(=C(\c1ccc(C(=O)NCC)cc1)c1cccc(C(=O)O)c1)C2 | 30 nM |  | 24 nM
61 | CCNC(=O)c1ccc(C(=C2CC3CCC(C2)N3Cc2ccoc2)c2cnccn2)cc1 | 3.4 nM | 2.9 | 9.9 nM
62 | CCNC(=O)c1ccc(/C(=C2/C[C@H]3CC[C@@H](C2)N3Cc2ccsc2)c2cccc(-c3nn[nH]n3)c2)cc1 | 31 nM |  | 3100 nM
63 | CCNC(=O)c1ccc(C(=C2CC3CCC(C2)N3Cc2ccoc2)c2ccc(N(C)C)cc2)cc1 | 8.7 nM | 5.9 | 51 nM
